For assay [1], the target named is T1, Adenosine receptor A1 (Rattus norvegicus, UniProt P25099).
T1 sequence (P25099 whole entry): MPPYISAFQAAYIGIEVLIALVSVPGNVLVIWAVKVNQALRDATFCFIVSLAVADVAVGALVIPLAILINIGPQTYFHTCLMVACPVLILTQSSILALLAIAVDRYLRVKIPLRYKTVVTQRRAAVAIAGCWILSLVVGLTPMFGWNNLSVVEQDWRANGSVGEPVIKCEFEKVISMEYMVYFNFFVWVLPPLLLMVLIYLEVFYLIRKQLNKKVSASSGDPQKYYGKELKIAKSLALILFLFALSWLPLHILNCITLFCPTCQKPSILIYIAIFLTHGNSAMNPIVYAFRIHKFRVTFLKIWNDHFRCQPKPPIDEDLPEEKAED
The experiment in a line: Adenosine A1 receptor mediated negative chronotropic activity in spontaneously beating rat atria. Format: functional.

Assay [2] has as its target T2, Adenosine receptor A2a (Rattus norvegicus, UniProt P30543).
Description: Vasorelaxation as Adenosine A2A receptor activity in rat aorta
Assay [3] has as its target T1, Adenosine receptor A1.
Description: Displacement of [3H]CHA from Adenosine A1 receptor of rat brain
In assay [4] the target is T2, Adenosine receptor A2a. This is another data set of the same source.
Description: Displacement of [3H]-CGS- 51680 from Adenosine A2A receptor of rat striatum.

The EC50 is the concentration at which the effect is half-maximal. Lower therefore signals greater potency. As usually defined, the Ki is the dissociation constant of the complex between target and ligand, obtained from inhibition or displacement. High values mean weaker binding, low ones tighter binding.

The structures appear in SMILES notation. Where only a bound is given, the exact number is not on record here.

T2 sequence (P30543 whole entry): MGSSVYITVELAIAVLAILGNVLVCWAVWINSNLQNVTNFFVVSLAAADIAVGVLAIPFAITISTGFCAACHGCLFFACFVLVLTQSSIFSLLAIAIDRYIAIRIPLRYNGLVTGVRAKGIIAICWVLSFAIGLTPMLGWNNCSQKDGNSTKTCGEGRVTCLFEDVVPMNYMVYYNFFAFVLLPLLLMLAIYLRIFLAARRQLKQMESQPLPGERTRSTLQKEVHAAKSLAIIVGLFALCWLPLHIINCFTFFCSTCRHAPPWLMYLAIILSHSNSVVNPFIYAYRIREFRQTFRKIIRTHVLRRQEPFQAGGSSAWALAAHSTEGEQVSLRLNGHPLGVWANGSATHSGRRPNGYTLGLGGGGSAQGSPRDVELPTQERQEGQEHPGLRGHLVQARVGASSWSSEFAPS

With `CCNC(=O)[C@H]1O[C@@H](n2cnc3c(N)nc(C#Cc4ccccc4)nc32)[C@H](O)[C@@H]1O`, the EC50 at Adenosine receptor A1 [1] and at Adenosine receptor A2a [2] was more than 0.001 µM throughout.

At Adenosine receptor A1 [1], `CCCCC#Cc1nc(N)c2ncn([C@@H]3O[C@H](CO)[C@@H](O)[C@H]3O)c2n1` came in with a 50% effective concentration (EC50) of more than 0.001 µM. The Ki at Adenosine receptor A1 [3] was 0.098 µM.

As to `CCNC(=O)[C@H]1O[C@@H](n2cnc3c(N)nc(/C=C/c4ccccc4)nc32)[C@H](O)[C@@H]1O`, the EC50 stood at 0.42 µM at Adenosine receptor A1 [1] and 0.194 µM on Adenosine receptor A2a [2]. Also, the Ki came out at 0.117 µM at Adenosine receptor A1 [3] and 0.234 µM at Adenosine receptor A2a [4].

As for `CCCC/C=C/c1nc(N)c2ncn([C@@H]3O[C@H](C(=O)NCC)[C@@H](O)[C@H]3O)c2n1`, the EC50 at Adenosine receptor A1 [1] is more than 0.001 µM; at Adenosine receptor A2a [2], 0.594 µM. The Ki came out at 0.251 µM at Adenosine receptor A1 [3] and 0.0016 µM on Adenosine receptor A2a [4].

Take `CCCC/C=C/c1nc(N)c2ncn([C@@H]3O[C@H](CO)[C@@H](O)[C@H]3O)c2n1`: the values for the inhibition constant Ki on Adenosine receptor A1 [3] and at Adenosine receptor A2a [4] were 0.332 µM and 0.014 µM, respectively.

For `CCCCCCc1nc(N)c2ncn(C3O[C@H](CO)[C@@H](O)[C@H]3O)c2n1` (stereo partly drawn), the EC50 on Adenosine receptor A1 [1] was more than 0.001 µM. In addition, the Ki on Adenosine receptor A1 [3] and at Adenosine receptor A2a [4] was more than 0.001 µM throughout.

On to `CCCC/C=C\c1nc(N)c2ncn(C3O[C@H](C(=O)NCC)[C@@H](O)[C@H]3O)c2n1` (stereo partly drawn), for which the results for the EC50 on Adenosine receptor A1 [1] and at Adenosine receptor A2a [2] were more than 0.001 µM and 0.676 µM, respectively. In addition, the results for the inhibitory constant (Ki) on Adenosine receptor A1 [3] and on Adenosine receptor A2a [4] were 0.951 µM and 0.07 µM, respectively.

Compound `CCNC(=O)[C@H]1O[C@@H](n2cnc3c(N)nc(C#CCCCc4ccccc4)nc32)[C@H](O)[C@@H]1O` gave an EC50 on Adenosine receptor A1 [1] of more than 0.001 µM.

For `CCCCC#Cc1nc(N)c2ncn([C@@H]3O[C@H](C(=O)NCC)[C@@H](O)[C@H]3O)c2n1`, the EC50 on Adenosine receptor A1 [1] was more than 0.001 µM.

In turn, `CCCC/C=C\c1nc(N)c2ncn([C@@H]3O[C@H](CO)[C@@H](O)[C@H]3O)c2n1` returned an EC50 at Adenosine receptor A1 [1] of more than 0.001 µM. The Ki at Adenosine receptor A1 [3] amounted to 0.618 µM; at Adenosine receptor A2a [4] it was 0.757 µM.

Consider `CCNC(=O)[C@H]1O[C@@H](n2cnc3c(N)nc(/C=C\CCCc4ccccc4)nc32)[C@H](O)[C@@H]1O`, for which the EC50 at Adenosine receptor A1 [1] and on Adenosine receptor A2a [2] was more than 0.001 µM throughout. The Ki at Adenosine receptor A1 [3] is more than 0.001 µM; at Adenosine receptor A2a [4], 0.051 µM.

`CCNC(=O)[C@H]1O[C@@H](n2cnc3c(N)nc(/C=C/CCCc4ccccc4)nc32)[C@H](O)[C@@H]1O`: the EC50 at Adenosine receptor A1 [1] is more than 0.001 µM; on Adenosine receptor A2a [2], 0.576 µM. Besides, the Ki at Adenosine receptor A1 [3] amounted to 1.02 µM; at Adenosine receptor A2a [4], 0.0035 µM.

On to `CCCCCCc1nc(N)c2ncn([C@@H]3O[C@H](C(=O)NCC)[C@@H](O)[C@H]3O)c2n1`, for which the values for the EC50 on Adenosine receptor A1 [1] and on Adenosine receptor A2a [2] were more than 0.001 µM and 0.001 µM, respectively. For the same compound, the Ki at Adenosine receptor A1 [3] is more than 0.001 µM; at Adenosine receptor A2a [4] it was 0.136 µM.
